Experimental data reported in patent publication US20240316047A1, “INHIBITORS OF RNA HELICASE DHX9 AND USES THEREOF” (ACCENT THERAPEUTICS, INC., priority 2022, published 2024).

Molecular target: Human recombinant DHX9 protein (Homo sapiens (Human), UniProt Q08211)
Experiment: DHX9 ATPase assay (ADP-Glo)
Type: biochemical
Conditions: for IC50: read-out: DHX9 Biochemical Inflection Point

Chain of Human recombinant DHX9 protein (Q08211 whole entry): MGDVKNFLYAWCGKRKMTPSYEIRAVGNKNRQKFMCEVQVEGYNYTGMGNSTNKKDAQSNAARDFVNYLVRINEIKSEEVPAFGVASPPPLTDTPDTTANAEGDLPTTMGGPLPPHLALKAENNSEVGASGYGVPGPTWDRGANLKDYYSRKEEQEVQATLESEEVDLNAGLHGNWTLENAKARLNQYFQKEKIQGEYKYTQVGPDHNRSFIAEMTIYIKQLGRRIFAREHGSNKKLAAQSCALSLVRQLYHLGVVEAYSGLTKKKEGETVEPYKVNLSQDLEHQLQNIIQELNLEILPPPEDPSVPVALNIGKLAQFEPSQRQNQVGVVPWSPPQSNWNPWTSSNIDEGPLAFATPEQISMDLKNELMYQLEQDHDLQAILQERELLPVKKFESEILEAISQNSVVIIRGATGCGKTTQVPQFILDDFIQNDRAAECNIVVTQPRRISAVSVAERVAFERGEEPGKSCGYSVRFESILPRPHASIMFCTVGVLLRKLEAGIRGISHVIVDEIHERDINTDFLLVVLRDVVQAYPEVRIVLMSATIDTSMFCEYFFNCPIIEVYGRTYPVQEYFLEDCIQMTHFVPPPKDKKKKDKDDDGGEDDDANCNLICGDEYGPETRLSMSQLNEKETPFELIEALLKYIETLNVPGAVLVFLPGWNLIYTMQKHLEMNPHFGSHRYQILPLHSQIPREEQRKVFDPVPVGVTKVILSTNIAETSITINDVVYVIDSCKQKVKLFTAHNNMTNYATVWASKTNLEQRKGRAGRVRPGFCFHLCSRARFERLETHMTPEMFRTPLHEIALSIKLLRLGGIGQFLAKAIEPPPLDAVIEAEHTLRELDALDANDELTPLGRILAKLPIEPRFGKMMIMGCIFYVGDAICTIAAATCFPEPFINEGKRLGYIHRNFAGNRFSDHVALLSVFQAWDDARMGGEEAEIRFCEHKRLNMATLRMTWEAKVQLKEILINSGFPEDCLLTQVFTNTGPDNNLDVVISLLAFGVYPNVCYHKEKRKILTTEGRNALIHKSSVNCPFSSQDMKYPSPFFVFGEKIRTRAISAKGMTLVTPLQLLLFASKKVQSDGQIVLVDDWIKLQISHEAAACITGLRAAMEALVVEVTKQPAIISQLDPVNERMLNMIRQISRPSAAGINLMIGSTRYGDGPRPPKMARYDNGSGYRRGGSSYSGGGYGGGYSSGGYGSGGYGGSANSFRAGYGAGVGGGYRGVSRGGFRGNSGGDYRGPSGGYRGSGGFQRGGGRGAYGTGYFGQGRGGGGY

DHX9 Biochemical Max Inhibition	IC50	SMILES
74.2	21.6 nM	CCS(=O)(=O)Nc1cc(Cl)cc(NC(=O)c2cc(C)n(-c3ncc(N4CC(F)(F)C4)cn3)c2)c1 [Example 423]
81.7	5.1 nM	CS(=O)(=O)Nc1cc(Cl)cc(NC(=O)c2cnn(C3CCCC3OCc3ccccc3)c2)c1 (stereo not drawn) [Example 424]
90	55.5 nM	Cc1cc(C(=O)Nc2cc(Cl)cc(NS(C)(=O)=O)c2)cn1-c1ccc(C#N)cn1 [Example 425]
74.7	58.5 nM	Cc1cc(C(=O)Nc2cc(Cl)cc(NS(C)(=O)=O)c2)cn1-c1ncc(C(F)(F)F)cn1 [Example 426]
58.4	122 nM	CS(=O)(=O)Nc1cc(Cl)cc(NC(=O)c2cnn(-c3ncccc3Oc3cccc(F)c3)c2)c1 [Example 427]
68.9	70.8 nM	CS(=O)(=O)Nc1cc(Cl)cc(NC(=O)c2cnn(-c3ccccc3COc3cncc(F)c3)c2)c1 [Example 428]
73.5	8.6 nM	CN1CCN(c2csc(C(=O)Nc3cc(Cl)cc(NS(C)(=O)=O)c3)c2)C1=O [Example 431]
75.4	12.1 nM	CN1C(=O)N(c2csc(C(=O)Nc3cc(Cl)cc(NS(C)(=O)=O)c3)c2)C(=O)C1(C)C [Example 432]
71.2	24.1 nM	CS(=O)(=O)Nc1cc(Cl)cc(NC(=O)c2cc(N3CCOC3=O)cs2)c1 [Example 433]
67.1	51.1 nM	Cc1sc(C(=O)Nc2cc(Cl)cc(NS(C)(=O)=O)c2)cc1N1CCCC1=O [Example 434]
79.1	8.7 nM	COc1cnn(-c2csc(C(=O)Nc3cc(Cl)cc(NS(C)(=O)=O)c3)c2)c1 [Example 435]
81.4	15.7 nM	COc1cnn(-c2cc(C(=O)Nc3cc(Cl)cc(NS(C)(=O)=O)c3)sc2C)c1 [Example 436]
84.2	15.5 nM	CCOc1ccc(-n2cc(C(=O)Nc3cc(Cl)cc(NS(C)(=O)=O)c3)cc2C)nc1 [Example 437]
66.9	5.8 nM	CCOc1cnn(-c2cc(C(=O)Nc3cc(Cl)cc(NS(C)(=O)=O)c3)sc2C)c1 [Example 438]
61.5	18.7 nM	Cc1sc(C(=O)Nc2cc(Cl)cc(NS(C)(=O)=O)c2)cc1-n1cc(F)cn1 [Example 439]
68.5	37.6 nM	CS(=O)(=O)Nc1cc(Cl)cc(NC(=O)c2cc(-n3cc(F)cn3)cs2)c1 [Example 440]
72.6	26.5 nM	COc1cnc(-n2cc(C(=O)Nc3cc(Cl)cc(NS(C)(=O)=O)c3)cc2C)nc1 [Example 441]
72.7	9.3 nM	COCCOc1ccc(-n2cc(C(=O)Nc3cc(Cl)cc(NS(C)(=O)=O)c3)cc2C)nc1 [Example 442]
76.6	59 nM	Cc1cc(C(=O)Nc2cc(Cl)cc(NS(C)(=O)=O)c2)cn1-c1ccc(C(F)(F)F)cn1 [Example 443]

DHX9 Biochemical Max Inhibition	IC50	SMILES
72.9	39.1 nM	Cc1cc(C(=O)Nc2cc(Cl)cc(NS(C)(=O)=O)c2)cn1-c1ncc(F)cc1F [Example 444]
70.5	80.8 nM	CCS(=O)(=O)Nc1cc(Cl)cc(NC(=O)c2cc(C)n(-c3ncc(F)cc3F)c2)c1 [Example 445]
64.1	115 nM	CCS(=O)(=O)Nc1cc(Cl)cc(NC(=O)c2cc(C)n(-c3ncc(F)cc3Cl)c2)c1 [Example 446]
74.9	9 nM	COCc1ccc(-n2cc(C(=O)Nc3cc(Cl)cc(NS(C)(=O)=O)c3)cc2C)nc1 [Example 447]
66.7	1750 nM	CS(=O)(=O)Nc1cc(Cl)cc(NC(=O)c2cc(-c3ncc(F)cn3)c(C3CC3)s2)c1 [Example 448]
69.5	336 nM	CCS(=O)(=O)Nc1cc(Cl)cc(NC(=O)c2cc(-c3ncc(F)cn3)c(C3CC3)s2)c1 [Example 449]
62.8	79.1 nM	CS(=O)(=O)Nc1cc(Cl)cc(NC(=O)c2cc(-c3ncc(F)cn3)c(Cl)s2)c1 [Example 450]
73.2	54.3 nM	CS(=O)(=O)Nc1cc(Cl)cc(NC(=O)c2cc(C3CC3)n(-c3ncc(F)cn3)c2)c1 [Example 451]
80.5	32.9 nM	Cc1sc(C(=O)Nc2cc(Cl)cc(NS(C)(=O)=O)c2)cc1-c1ncc(OC2CCC2)cn1 [Example 452]
90.7	12.2 nM	CCOc1cnc(-c2cc(C(=O)Nc3cc(Cl)cc(NS(C)(=O)=O)c3)cn2C)c(F)c1 [Example 453]
82.9	5 nM	COc1cnc(-c2cc(C(=O)Nc3cc(Cl)cc(NS(C)(=O)=O)c3)cn2C)c(F)c1 [Example 454]
61.5	16.2 nM	CCOc1cnc(-c2cc(C(=O)Nc3cc(Cl)cc(NS(C)(=O)=O)c3)sc2C)c(F)c1 [Example 456]
58.7	20.2 nM	CC(C)Oc1cnc(-c2csc(C(=O)Nc3cc(Cl)cc(NS(C)(=O)=O)c3)c2)nc1 [Example 457]
60.2		CC(C)Oc1cnc(-c2csc(C(=O)Nc3cc(Cl)cc(NS(C)(=O)=O)c3)c2)c(F)c1 [Example 458]
65.7		CC(C)Oc1ccc(-c2csc(C(=O)Nc3cc(Cl)cc(NS(C)(=O)=O)c3)c2)nc1 [Example 459]
46.1	53.9 nM	Cc1cc(N2CC(F)(F)C2)cnc1-c1cc(C(=O)Nc2cc(Cl)cc(NS(C)(=O)=O)c2)cn1C [Example 461]
82.4	9.1 nM	COc1cc(N2CC(F)(F)C2)cnc1-c1cc(C(=O)Nc2cc(Cl)cc(NS(C)(=O)=O)c2)cn1C [Example 462]
77.1	8.5 nM	CCS(=O)(=O)Nc1cc(Cl)cc(NC(=O)c2cc(-c3ncc(N4CC(F)(F)C4)cn3)c(C)s2)c1 [Example 463]
74.8	5.7 nM	COC(=O)N1CCN(c2cnc(-c3cc(C(=O)Nc4cc(Cl)cc(NS(C)(=O)=O)c4)cn3C)c(F)c2)CC1 [Example 464]

DHX9 Biochemical Max Inhibition	IC50	SMILES
85.3	6.8 nM	COC1CN(c2ccc(-c3cc(C(=O)Nc4cc(Cl)cc(NS(C)(=O)=O)c4)cn3C)nc2)C1 [Example 465]
82.2	11.1 nM	Cn1cc(C(=O)Nc2cc(Cl)cc(NS(C)(=O)=O)c2)cc1-c1ncc(N2CC(F)C2)cc1F [Example 466]
99.3	155 nM	Cc1sc(C(=O)Nc2cc(Cl)cc(NS(C)(=O)=O)c2)cc1-c1ncc(N2CCC3(CC2)CC3)cc1F [Example 467]
96	132 nM	Cn1cc(C(=O)Nc2cc(Cl)cc(NS(C)(=O)=O)c2)cc1-c1ncc(N2CCC3(CC2)CC3)cc1F [Example 468]
83.4	22.5 nM	Cn1cc(C(=O)Nc2cc(Cl)cc(NS(C)(=O)=O)c2)cc1-c1ncc(N2CCC(F)(F)CC2)cc1F [Example 469]
72.1	29.2 nM	Cc1sc(C(=O)Nc2cc(Cl)cc(NS(C)(=O)=O)c2)cc1-c1ncc(N2CCC(F)(F)CC2)cc1F [Example 471]
60.9	211 nM	Cn1cc(C(=O)Nc2cc(Cl)cc(NS(C)(=O)=O)c2)cc1-c1ncc(N2CCC(C(F)(F)F)CC2)cc1F [Example 472]
70.4	11.7 nM	Cc1sc(C(=O)Nc2cc(Cl)cc(NS(C)(=O)=O)c2)cc1-c1ncc(N2CCC3(CC2)COC3)cc1F [Example 474]
64.7	13.6 nM	Cn1cc(C(=O)Nc2cc(Cl)cc(NS(C)(=O)=O)c2)cc1-c1ncc(N2CCC3(CC2)COC3)cc1F [Example 475]
61.1	312 nM	Cc1sc(C(=O)Nc2cc(Cl)cc(NS(C)(=O)=O)c2)cc1-c1ncc(N2CC3C(C2)C3(C)C)cc1F (stereo not drawn) [Example 476]
66.8	150 nM	Cc1sc(C(=O)Nc2cc(Cl)cc(NS(C)(=O)=O)c2)cc1-c1ncc(N2CCC3(CC2)CC3(F)F)cc1F [Example 478]
69.6	17.5 nM	Cc1sc(C(=O)Nc2cc(Cl)cc(NS(C)(=O)=O)c2)cc1-c1ncc(N2CCC(F)(F)C2)cn1 [Example 479]
67.4	146 nM	Cc1sc(C(=O)Nc2cc(Cl)cc(NS(C)(=O)=O)c2)cc1-c1ncc(N2CCC3(C2)CC3(F)F)cc1F (stereo not drawn) [Example 480]
62.1	204 nM	Cc1sc(C(=O)Nc2cc(Cl)cc(NS(C)(=O)=O)c2)cc1-c1ncc(N2CCC(C(F)(F)F)CC2)cc1F [Example 481]
63.3	66.5 nM	Cc1sc(C(=O)Nc2cc(Cl)cc(NS(C)(=O)=O)c2)cc1-c1ncc(N2CCCC(F)(F)C2)cc1F [Example 482]
56.4	67.3 nM	Cn1cc(C(=O)Nc2cc(Cl)cc(NS(C)(=O)=O)c2)cc1-c1ncc(N2CCCC(F)(F)C2)cc1F [Example 483]
66.5	33.5 nM	Cc1sc(C(=O)Nc2cc(Cl)cc(NS(C)(=O)=O)c2)cc1-c1ncc(N2CCC(F)(F)C2)cc1F [Example 484]
66.5	19.1 nM	Cc1sc(C(=O)Nc2cc(Cl)cc(NS(C)(=O)=O)c2)cc1-c1ccc(N2CCC(F)(F)C2)cn1 [Example 485]

SMILES	DHX9 Biochemical Max Inhibition	IC50
Cn1cc(C(=O)Nc2cc(Cl)cc(NS(C)(=O)=O)c2)cc1-c1ncc(N2CC[Si](C)(C)CC2)cc1F [Example 470]	93.8	125 nM
Cc1sc(C(=O)Nc2cc(Cl)cc(NS(C)(=O)=O)c2)cc1-c1ncc(N2CC[Si](C)(C)CC2)cc1F [Example 473]	54.5	313 nM
